Measured values: patent US20090110671A1, “AGENT FOR ENHANCHING THE PRODUCTION OF COLLAGEN AND IT'S USE” (priority 2005, published 2009)

Key:
NHDF cells = assay: Experiment 4: collagen production in NHDF cells, saccharides combined with hyaluronic acid and/or chondroitin sulfate; type: cell-based, human
Excerpt: Influence of α,α-trehalose or a saccharide derivative thereof, or a combination use of any of these saccharides and hyaluronic acid and/or chondroitin sulfate on the collagen production by L-ascorbic acids was examined as follows. AA-2G and any one of hydrous crystalline α,α-trehalose, a reagent grade specimen commercialized by Hayashibara Biochemical Laboratories Inc., Okayama, Japan; α-maltosyl α,α-trehalose with a purity of at least 98% commercialized by Hayashibara Biochemical Laboratories Inc., Okayama, Japan; and “HALLODEX”, a product name of a syrup of saccharide derivatives of α,α-trehalose were dissolved in D-MEM medium to give final concentrations of 50 μM of AA-2G and 15.0 mg/ml of saccharides. Further, as another test solutions, those, which had been prepared similarly as in the above, were admixed with any one of hyaluronic acid, chondroitin sulfate, and a combination thereof to give respective concentrations of 1 mg/ml, 1 mg/ml, and 0.5 mg/ml of hyaluronic acid and chondroitin sulfate each. The medium supplemented with a syrup containing about 59%, d.s.b., of saccharide derivatives of α,α-trehalose was prepared to give a concentration of 15.0 mg/ml of the saccharide derivatives of α,α-trehalose contained in the syrup. The culture of NHDF cells and the quantification of collagen-production level thereof were carried out similarly as in Experiment 1. The results are in Table 4 where the values are expressed with relative values in terms of the collagen-production level of NHDF cells, being regarded as 100, when cultured in D-MEM medium containing AA-2G.

[1] = tested on: skin wrinkles/finely-wrinkles and flabby skin; assay: Experiment 5: self-evaluation of lotions on skin wrinkles/finely-wrinkles and flabby skin, four months; type: in vivo, human; settings: 4 months; for Evaluation A (remarkably efficacious) / Evaluation B (efficacious) / Evaluation C (slightly efficacious) / Evaluation D (inefficacious): lotion
Protocol: The following experiment was conducted to examine the influence of α,α-trehalose or saccharide derivatives thereof and hyaluronic acid and/or chondroitin sulfate on the skin. Since there exists a relatively constant amount of L-ascorbic acid in vivo, the collagen production by L-ascorbic acid proceeds constantly. Based on the following basic formulation for lotion and the combination and composition in Table 5, 100 parts by weights of a lotion was prepared by adding to the basic formulation sodium hyaluronate, chondroitin sulfate, hydrous crystalline α,α-trehalose, a cosmetic grade specimen commercialized by Hayashibara Biochemical Laboratories Inc., Okayama, Japan, and “[…]”, a product name of a syrup having a solid content of about 75% and containing, on a dry solid basis, about 53% by weight of α-maltosyl α,α-trehalose and about 5% by weight of other saccharide derivatives of α,α-trehalose, and an adequate amount of refined water. In Table 5, the respective amounts of the added saccharide are expressed on a dry solid basis. The syrup containing saccharide derivatives of α,α-trehalose was added in an amount of the saccharide derivatives as shown in Table 5. Eleven women as volunteers, who had been suffering from skin wrinkles/finely-wrinkles or flabby skin, were allowed to wash their faces with any of the lotions having compositions in Table 5 three times a day for four months and then allowed to evaluate themselves about their face-skin conditions by comparing with those before use of the lotions.

[2] = added saccharide 0.05 part by weight, 3 times a day
[3] = added saccharide 0.1 part by weight, 3 times a day
[4] = added saccharide 1 part by weight, 3 times a day
[5] = added saccharide 2 + chondroitin sulfate 0.5 part by weight
[6] = added saccharide 2 + sodium hyaluronate 0.25 + chondroitin sulfate 0.25 part by weight
[7] = added saccharide 2 + sodium hyaluronate 0.5 part by weight
[8] = added saccharide 2 parts by weight, 3 times a day
[9] = added saccharide 10 parts by weight, 3 times a day
[10] = added saccharide 20 parts by weight, 3 times a day

SMILES: OC[C@H]1O[C@H](O[C@H]2O[C@H](CO)[C@@H](O)[C@H](O)[C@H]2O)[C@H](O)[C@@H](O)[C@@H]1O [α,α-trehalose]
- Collagen-production level (NHDF cells; saccharide 15.0 mg/ml + 50 μM AA-2G): 203
- Collagen-production level (NHDF cells; saccharide 15.0 mg/ml + 50 μM AA-2G + chondroitin sulfate 1 mg/ml): 256
- Collagen-production level (NHDF cells; saccharide 15.0 mg/ml + 50 μM AA-2G + hyaluronate and chondroitin sulfate 0.5 mg/ml each): 344
- Collagen-production level (NHDF cells; saccharide 15.0 mg/ml + 50 μM AA-2G + sodium hyaluronate 1 mg/ml): 276
- Collagen-production level (NHDF cells; saccharide 15.0 mg/ml alone, no AA-2G, no hyaluronate, no chondroitin sulfate): 42
- Evaluation A (remarkably efficacious) [1, 2]: 0 number of volunteers
- Evaluation B (efficacious) [1, 2]: 0 number of volunteers
- Evaluation C (slightly efficacious) [1, 2]: 3 number of volunteers
- Evaluation D (inefficacious) [1, 2]: 8 number of volunteers
- Evaluation A (remarkably efficacious) [1, 3]: 0 number of volunteers
- Evaluation B (efficacious) [1, 3]: 2 number of volunteers
- Evaluation C (slightly efficacious) [1, 3]: 5 number of volunteers
- Evaluation D (inefficacious) [1, 3]: 4 number of volunteers
- Evaluation A (remarkably efficacious) [1, 4]: 2 number of volunteers
- Evaluation B (efficacious) [1, 4]: 2 number of volunteers
- Evaluation C (slightly efficacious) [1, 4]: 6 number of volunteers
- Evaluation D (inefficacious) [1, 4]: 1 number of volunteers
- Evaluation A (remarkably efficacious) [1, 5]: 3 number of volunteers
- Evaluation B (efficacious) [1, 5]: 5 number of volunteers
- Evaluation C (slightly efficacious) [1, 5]: 3 number of volunteers
- Evaluation D (inefficacious) [1, 5]: 0 number of volunteers
- Evaluation A (remarkably efficacious) [1, 6]: 6 number of volunteers
- Evaluation B (efficacious) [1, 6]: 3 number of volunteers
- Evaluation C (slightly efficacious) [1, 6]: 2 number of volunteers
- Evaluation D (inefficacious) [1, 6]: 0 number of volunteers
- Evaluation A (remarkably efficacious) [1, 7]: 3 number of volunteers
- Evaluation B (efficacious) [1, 7]: 4 number of volunteers
- Evaluation C (slightly efficacious) [1, 7]: 3 number of volunteers
- Evaluation D (inefficacious) [1, 7]: 1 number of volunteers
- Evaluation A (remarkably efficacious) [1, 8]: 2 number of volunteers
- Evaluation B (efficacious) [1, 8]: 4 number of volunteers
- Evaluation C (slightly efficacious) [1, 8]: 4 number of volunteers
- Evaluation D (inefficacious) [1, 8]: 1 number of volunteers
- Evaluation A (remarkably efficacious) [1, 9]: 3 number of volunteers
- Evaluation B (efficacious) [1, 9]: 3 number of volunteers
- Evaluation C (slightly efficacious) [1, 9]: 5 number of volunteers
- Evaluation D (inefficacious) [1, 9]: 0 number of volunteers
- Evaluation A (remarkably efficacious) [1, 10]: 3 number of volunteers
- Evaluation B (efficacious) [1, 10]: 3 number of volunteers
- Evaluation C (slightly efficacious) [1, 10]: 5 number of volunteers
- Evaluation D (inefficacious) [1, 10]: 0 number of volunteers
- volunteers who evaluated the lotions efficacious or more ([1]; lotions with 2 to 20 parts by weight of saccharide): six
